{"source": "patent US10111433B2", "about": "(priority 2014, dated 2018)", "key": {"[1]": {"tested_on": "Plasmopara viticola", "test": "Field activity against Plasmopara viticola on grapevine", "type": "in vivo", "conditions": "Table B2; A-1.2 22.5 gai/ha; bunches, ten days after sixth application", "from_the_text": "Merlot grapevines were cultivated in rows with 1 m between plants within the row, and 2 m spaces between rows. Treatment plots were defined with an 8 m^2 vertical area. The trial consisted of three replicates of the treatment list, with the positions of each treatment plot randomised within the replicate.\nTest compounds were formulated and applied to the relevant treatment plots, using a backpack sprayer with a flat fan nozzle. The first application was made when the majority of plants were at growth stage BBCH 15 and following applications at 10-14 day intervals through to growth stage BBCH 79.\nThe first symptoms of the target pathogen Plasmopara viticola were observed between the second and third applications. Plants outside the trial area were inoculated to increase the disease pressure, but infection processes within the trial plots were natural. […]\nTen days after the sixth application, at growth stage BBCH 79, the fruit was assessed for infection by Plasmopara viticola. 50 bunches per plot were assessed, the scores given in table B2 are percent disease control relative to untreated, based on the mean percentage of bunches showing symptoms of infection across all three replicates of a treatment."}, "[2]": {"tested_on": "Phytophthora infestans", "type": "in vivo"}, "[3]": {"tested_on": "Phytophthora infestans", "type": "in vivo", "conditions": "Table B3; A-1.2 15 gai/ha; leaf area, four days after final application"}, "[4]": {"tested_on": "Phytophthora capsici", "test": "Activity against Phytophthora capsici, growth inhibition in nutrient broth (microtiter plate)", "type": "cell-based", "conditions": "Phytophthora capsici, read-out: % disease control; for inhibition of growth at 6.25e-05 ppm: A-1.2 0.0000625 ppm; for inhibition of growth at 0.0005 ppm: A-1.2 0.0005000 ppm; for inhibition of growth at 3.9e-06 ppm: A-1.2 0.0000039 ppm; for inhibition of growth at 7.8e-06 ppm: A-1.2 0.0000078 ppm; for inhibition of growth at 1.56e-05 ppm: A-1.2 0.0000156 ppm; for inhibition of growth at 3.13e-05 ppm: A-1.2 0.0000313 ppm", "method": "Conidia of the fungus from cryogenic storage are directly mixed into nutrient broth (PDB potato dextrose broth). After placing a (DMSO) solution of test compound into a microtiter plate (96-well format), the nutrient broth containing the fungal spores is added. […] Table B4 to B21 gives the mean percent control relative to untreated."}}, "note": "Read-outs that look alike come from different tables or passages of the source."}
{"smiles": "O=C(N[C@@H]1CCCc2ccccc21)c1cc(C2CCN(C(=O)Cn3nc(C(F)F)cc3C(F)F)CC2)ccn1", "note": "[Compound A-1.2, 1′-[2-(3,5-bis-difluoromethyl-pyrazol-1-yl)-acetyl]-1′,2′,3′,4′,5′,6′-hexahydro-[4,4′]bipyridinyl-2-carboxylic acid (R)-(1,2,3,4-tetrahydronaphthalen-1-yl)-amide]", "values": [{"measurement": "% disease control relative to untreated", "setting": "[1]", "value": 87.3, "unit": "%"}, {"measurement": "% disease control", "setting": "[2]; Table B1.1, A-1.2 0.02 ppm", "value": 0, "unit": "%"}, {"measurement": "% disease control", "setting": "[2]; Table B1.1, A-1.2 0.06 ppm", "value": 14, "unit": "%"}, {"measurement": "% disease control", "setting": "[2]; Table B1.2, A-1.2 0.06 ppm", "value": 14, "unit": "%"}, {"measurement": "% disease control", "setting": "[2]; Table B1.3, A-1.2 0.06 ppm", "value": 14, "unit": "%"}, {"measurement": "% disease control relative to untreated", "setting": "[3]", "value": 64.8, "unit": "%"}, {"measurement": "inhibition of growth at 6.25e-05 ppm", "setting": "[4]; Table B4", "value": 0, "unit": "%"}, {"measurement": "inhibition of growth at 0.000125 ppm", "setting": "[4]; Table B4, A-1.2 0.0001250 ppm", "value": 32, "unit": "%"}, {"measurement": "inhibition of growth at 0.00025 ppm", "setting": "[4]; Table B4, A-1.2 0.0002500 ppm", "value": 64, "unit": "%"}, {"measurement": "inhibition of growth at 0.0005 ppm", "setting": "[4]; Table B4", "value": 76, "unit": "%"}, {"measurement": "inhibition of growth at 2e-06 ppm", "setting": "[4]; Table B5, A-1.2 0.0000020 ppm", "value": 0, "unit": "%"}, {"measurement": "inhibition of growth at 3.9e-06 ppm", "setting": "[4]; Table B5", "value": 0, "unit": "%"}, {"measurement": "inhibition of growth at 7.8e-06 ppm", "setting": "[4]; Table B5", "value": 0, "unit": "%"}, {"measurement": "inhibition of growth at 1.56e-05 ppm", "setting": "[4]; Table B5", "value": 0, "unit": "%"}, {"measurement": "inhibition of growth at 3.13e-05 ppm", "setting": "[4]; Table B5", "value": 0, "unit": "%"}, {"measurement": "inhibition of growth at 6.25e-05 ppm", "setting": "[4]; Table B5", "value": 47, "unit": "%"}, {"measurement": "inhibition of growth at 6.25e-05 ppm", "setting": "[4]; Table B6", "value": 0, "unit": "%"}, {"measurement": "inhibition of growth at 0.000125 ppm", "setting": "[4]; Table B6, A-1.2 0.0001250 ppm", "value": 40, "unit": "%"}, {"measurement": "inhibition of growth at 0.00025 ppm", "setting": "[4]; Table B6, A-1.2 0.0002500 ppm", "value": 78, "unit": "%"}, {"measurement": "inhibition of growth at 3.9e-06 ppm", "setting": "[4]; Table B7", "value": 0, "unit": "%"}, {"measurement": "inhibition of growth at 7.8e-06 ppm", "setting": "[4]; Table B7", "value": 0, "unit": "%"}, {"measurement": "inhibition of growth at 1.56e-05 ppm", "setting": "[4]; Table B7", "value": 0, "unit": "%"}, {"measurement": "inhibition of growth at 3.13e-05 ppm", "setting": "[4]; Table B7", "value": 0, "unit": "%"}, {"measurement": "inhibition of growth at 6.25e-05 ppm", "setting": "[4]; Table B7", "value": 38, "unit": "%"}, {"measurement": "inhibition of growth at 0.000125 ppm", "setting": "[4]; Table B7, A-1.2 0.0001250 ppm", "value": 42, "unit": "%"}, {"measurement": "inhibition of growth at 6.25e-05 ppm", "setting": "[4]; Table B8", "value": 3, "unit": "%"}, {"measurement": "inhibition of growth at 0.000125 ppm", "setting": "[4]; Table B8, A-1.2 0.0001250 ppm", "value": 56, "unit": "%"}, {"measurement": "inhibition of growth at 0.00025 ppm", "setting": "[4]; Table B8, A-1.2 0.0002500 ppm", "value": 69, "unit": "%"}, {"measurement": "inhibition of growth at 6.25e-05 ppm", "setting": "[4]; Table B9", "value": 0, "unit": "%"}, {"measurement": "inhibition of growth at 0.000125 ppm", "setting": "[4]; Table B9, A-1.2 0.0001250 ppm", "value": 47, "unit": "%"}, {"measurement": "inhibition of growth at 6.25e-05 ppm", "setting": "[4]; Table B10", "value": 12, "unit": "%"}, {"measurement": "inhibition of growth at 0.000125 ppm", "setting": "[4]; Table B10, A-1.2 0.0001250 ppm", "value": 62, "unit": "%"}, {"measurement": "inhibition of growth at 6.25e-05 ppm", "setting": "[4]; Table B11", "value": 0, "unit": "%"}, {"measurement": "inhibition of growth at 0.000125 ppm", "setting": "[4]; Table B11, A-1.2 0.0001250 ppm", "value": 55, "unit": "%"}, {"measurement": "inhibition of growth at 0.00025 ppm", "setting": "[4]; Table B11, A-1.2 0.0002500 ppm", "value": 82, "unit": "%"}, {"measurement": "inhibition of growth at 3.13e-05 ppm", "setting": "[4]; Table B12", "value": 0, "unit": "%"}, {"measurement": "inhibition of growth at 6.25e-05 ppm", "setting": "[4]; Table B12", "value": 0, "unit": "%"}, {"measurement": "inhibition of growth at 0.000125 ppm", "setting": "[4]; Table B12, A-1.2 0.0001250 ppm", "value": 57, "unit": "%"}, {"measurement": "inhibition of growth at 0.00025 ppm", "setting": "[4]; Table B12, A-1.2 0.0002500 ppm", "value": 81, "unit": "%"}, {"measurement": "inhibition of growth at 0.000125 ppm", "setting": "[4]; Table B13, A-1.2 0.0001250 ppm", "value": 46, "unit": "%"}, {"measurement": "inhibition of growth at 0.00025 ppm", "setting": "[4]; Table B13, A-1.2 0.0002500 ppm", "value": 69, "unit": "%"}, {"measurement": "inhibition of growth at 0.0005 ppm", "setting": "[4]; Table B13", "value": 84, "unit": "%"}, {"measurement": "inhibition of growth at 1.56e-05 ppm", "setting": "[4]; Table B14", "value": 0, "unit": "%"}, {"measurement": "inhibition of growth at 3.13e-05 ppm", "setting": "[4]; Table B14", "value": 0, "unit": "%"}, {"measurement": "inhibition of growth at 6.25e-05 ppm", "setting": "[4]; Table B14", "value": 0, "unit": "%"}, {"measurement": "inhibition of growth at 1.56e-05 ppm", "setting": "[4]; Table B15", "value": 0, "unit": "%"}, {"measurement": "inhibition of growth at 3.13e-05 ppm", "setting": "[4]; Table B15", "value": 0, "unit": "%"}, {"measurement": "inhibition of growth at 6.25e-05 ppm", "setting": "[4]; Table B15", "value": 0, "unit": "%"}, {"measurement": "inhibition of growth at 0.000125 ppm", "setting": "[4]; Table B15, A-1.2 0.0001250 ppm", "value": 71, "unit": "%"}, {"measurement": "inhibition of growth at 0.000125 ppm", "setting": "[4]; Table B16, A-1.2 0.0001250 ppm", "value": 54, "unit": "%"}, {"measurement": "inhibition of growth at 6.25e-05 ppm", "setting": "[4]; Table B17", "value": 0, "unit": "%"}, {"measurement": "inhibition of growth at 0.000125 ppm", "setting": "[4]; Table B17, A-1.2 0.0001250 ppm", "value": 67, "unit": "%"}, {"measurement": "inhibition of growth at 0.00025 ppm", "setting": "[4]; Table B17, A-1.2 0.0002500 ppm", "value": 79, "unit": "%"}, {"measurement": "inhibition of growth at 0.0005 ppm", "setting": "[4]; Table B17", "value": 82, "unit": "%"}, {"measurement": "inhibition of growth at 7.8e-06 ppm", "setting": "[4]; Table B18", "value": 0, "unit": "%"}, {"measurement": "inhibition of growth at 1.56e-05 ppm", "setting": "[4]; Table B18", "value": 0, "unit": "%"}, {"measurement": "inhibition of growth at 3.13e-05 ppm", "setting": "[4]; Table B18", "value": 0, "unit": "%"}, {"measurement": "inhibition of growth at 6.25e-05 ppm", "setting": "[4]; Table B18", "value": 0, "unit": "%"}, {"measurement": "inhibition of growth at 0.000125 ppm", "setting": "[4]; Table B18, A-1.2 0.0001250 ppm", "value": 46, "unit": "%"}, {"measurement": "inhibition of growth at 1.56e-05 ppm", "setting": "[4]; Table B19", "value": 0, "unit": "%"}, {"measurement": "inhibition of growth at 3.13e-05 ppm", "setting": "[4]; Table B19", "value": 0, "unit": "%"}, {"measurement": "inhibition of growth at 6.25e-05 ppm", "setting": "[4]; Table B19", "value": 0, "unit": "%"}, {"measurement": "inhibition of growth at 0.000125 ppm", "setting": "[4]; Table B19, A-1.2 0.0001250 ppm", "value": 38, "unit": "%"}, {"measurement": "inhibition of growth at 0.00025 ppm", "setting": "[4]; Table B19, A-1.2 0.0002500 ppm", "value": 81, "unit": "%"}, {"measurement": "inhibition of growth at 6.25e-05 ppm", "setting": "[4]; Table B20", "value": 66, "unit": "%"}, {"measurement": "inhibition of growth at 0.000125 ppm", "setting": "[4]; Table B20, A-1.2 0.0001250 ppm", "value": 83, "unit": "%"}, {"measurement": "inhibition of growth at 6.3e-05 ppm", "setting": "[4]; Table B21, A-1.2 0.000063 ppm", "value": 0, "unit": "%"}, {"measurement": "inhibition of growth at 0.000125 ppm", "setting": "[4]; Table B21, A-1.2 0.000125 ppm", "value": 69, "unit": "%"}, {"measurement": "inhibition of growth at 0.00025 ppm", "setting": "[4]; Table B21, A-1.2 0.000250 ppm", "value": 78, "unit": "%"}]}
